Experimental findings from patent publication US9962452B2, “Soluble complexes of drug analogs and albumin” (Zhuhai Beihai Biotech Co., Ltd., priority 2013, dated 2018) are described below.

The data set deals with Human serum albumin (HSA) (Homo sapiens, UniProt P02768). The experiment in a line: HSA-Binding Assay (equilibrium dialysis, LC-MS/MS). To be noted: isolated protein. As to the method:
Equilibrium dialysis was performed in a 24-well BD Gentest Serum Binding System (BD Biosciences, Woburn, Mass.). Human serum albumin (HSA) at 0.6 mM was prepared by dissolving in phosphate buffered saline (PBS: 4.01 mL 1 M K2HPO4+0.99 mL 1 M KH2PO4+1.37 mL 5 M NaCl+43.63 mL water). After washing and soaking the 24-well BD Gentest Serum Binding System with water, 30% ethanol, and PBS, 750 μL of HSA and 250 μL of PBS were dispensed into each donor and receiver well, respectively. 3.75 μL of 1 mM test compound or wafarin (as control) was spiked into HSA in each donor well. The duplicate incubations were performed at 37° C. for 20 hrs.
After incubation, HSA and buffer samples collected from donor and receiver wells, together with calibration standard samples, were prepared in 96-well plates as shown in Table 2.
The plates were then capped, vortexed, and centrifuged at 3500 rpm for 10 minutes. The supernatant was injected into LC-MS/MS. Sample analysis was performed on an LC/MS/MS system composed of Shimadzu Prominence pumps, SIL-20ACHT autosampler, and Applied Biosystems/MDS Sciex API 3200.
On the technique in general: In equilibrium dialysis free small molecules cross a membrane that holds back macromolecules.
As for `CCc1c2c(nc3ccc(OC(=O)CCC(=O)N[C@@H](CC(C)C)C(=O)O)cc13)-c1cc3c(c(=O)n1C2)COC(=O)[C@@]3(CC)OC(=O)CCC(=O)N[C@@H](CC(C)C)C(=O)O` [FL-041], the fraction unbound (as a rule, the share of the substance not bound to proteins or other matrix) at 20 h, 5 μM was below 0.022.

Compound `CCCCC(NC(=O)CCC(=O)Oc1ccc2nc3c(c(CC)c2c1)Cn1c-3cc2c(c1=O)COC(=O)[C@@]2(CC)OC(=O)CCC(=O)NC(CCCC)C(=O)O)C(=O)O` (stereo partly drawn) [FL-038] registered a fraction unbound at 20 h, 5 μM below 0.168.

With `CCCCCCC(NC(=O)CCC(=O)Oc1ccc2nc3c(c(CC)c2c1)Cn1c-3cc2c(c1=O)COC(=O)[C@@]2(CC)OC(=O)CCC(=O)NC(CCCCCC)C(=O)O)C(=O)O` (stereo partly drawn) [FL-037], the free fraction (fraction unbound) at 20 h, 5 μM is below 0.023.

`CCCCC(NC(=O)CCC(=O)O[C@]1(CC)C(=O)OCc2c1cc1n(c2=O)Cc2c-1nc1ccc(O)cc1c2CC)C(=O)O` (stereo partly drawn) [FL-040] showed a free fraction (fraction unbound) at 20 h, 5 μM of 0.016.

Turning to `CCCCCCCCCCCCCCCCC(NC(=O)CCC(=O)O[C@]1(CC)C(=O)OCc2c1cc1n(c2=O)Cc2c-1nc1ccc(O)cc1c2CC)C(=O)O` (stereo partly drawn) [FL-003], the fraction unbound at 20 h, 5 μM is below 0.001.

`CCc1c2c(nc3ccc(O)cc13)-c1cc3c(c(=O)n1C2)COC(=O)[C@@]3(CC)OC(=O)CCC(=O)N[C@@H](CC(C)C)C(=O)O` [FL-043] gave a free fraction (fraction unbound) at 20 h, 5 μM of 0.03.
